Measured values from patent publication US20240002391A1, “4-ALKOXYPYRROLO[2,1-F][1,2,4]TRIAZINES AND PREPARATION AND USES THEREOF” (BioSplice Therapeutics, Inc., priority 2022, published 2024).

Biological target: recombinant DYRK1A kinase (Homo sapiens (Human), UniProt Q13627)
Experiment: DYRK1A kinase assay (Ser/Thr 18 peptide Z-lyte FRET)
Format: biochemical
Conditions: DYRK1A kinase activity, Z-lyte Ser/Thr 18 peptide, 15 μM ATP; method text calls the value IC50; read-out: EC50 (the source's name)
Procedure, shortened: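 Z-lyte FRET read-out: coumarin (Em 455) over fluorescein (Em 520) emission ratio, converted to percent phosphorylation after 1 h development. Reaction: 0.25 μg/mL kinase, 15 μM ATP, 4 μM peptide, 1 h RT with compound, duplicate wells. IC50s fitted by non-linear regression.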

IC50	Structure (SMILES)
4.1 nM	COc1nc(N[C@H]2CCN(CCF)C[C@H]2F)nn2ccc(-c3ccc4nccnc4c3)c12 [Compound 372, N-((3R,4S)-3-Fluoro-1-(2-fluoroethyl)piperidin-4-yl)-4-methoxy-5-(quinoxalin-6-yl)pyrrolo[2,1-f][1,2,4]triazin-2-amine]
1.9 nM	COc1nc(N[C@H]2CCN(C(C)=O)C[C@H]2F)nn2cc(F)c(-c3ccc4nnn(CC(F)F)c4c3)c12 [Compound 856, 1-((3R,4S)-4-((5-(1-(2,2-Difluoroethyl)-1H-benzo[d][1,2,3]triazol-6-yl)-6-fluoro-4-methoxypyrrolo[2,1-f][1,2,4]triazin-2-yl)amino)-3-fluoropiperidin-1-yl)ethan-1-one]
0.9 nM	COc1nc(N[C@@H]2CCN(C3COC3)CC2(F)F)nn2ccc(-c3ccc4nnn(CC(F)(F)F)c4c3)c12 [Compound 922, (R)—N-(3,3-Difluoro-1-(oxetan-3-yl)piperidin-4-yl)-4-methoxy-5-(1-(2,2,2-trifluoroethyl)-1H-benzo[d][1,2,3]triazol-6-yl)pyrrolo[2,1-f][1,2,4]triazin-2-amine]
0.4 nM	COc1nc(N[C@H]2C[C@@](C)(NC(C)=O)C2)nn2ccc(-c3ccc4nnn(CC(F)(F)F)c4c3)c12 [Compound 905, N-((1s,3s)-3-((4-Methoxy-5-(1-(2,2,2-trifluoroethyl)-1H-benzo[d][1,2,3]triazol-6-yl)pyrrolo[2,1-f][1,2,4]triazin-2-yl)amino)-1-methylcyclobutyl)acetamide]
19.8 nM	COc1nc(N[C@@H]2CC[C@@H]2OC)nn2ccc(-c3cnc4nccn4c3)c12 [Compound 929, 5-(Imidazo[1,2-a]pyrimidin-6-yl)-4-methoxy-N-((1R,2S)-2-methoxycyclobutyl)pyrrolo[2,1-f][1,2,4]triazin-2-amine]
1.2 nM	COc1nc(N[C@@H]2CN(C3(C#N)COC3)C[C@@H]2F)nn2ccc(-c3ccc4nnn(CC(F)F)c4c3)c12 [Compound 741, 3-((3R,4S)-3-((5-(1-(2,2-Difluoroethyl)-1H-benzo[d][1,2,3]triazol-6-yl)-4-methoxypyrrolo[2,1-f][1,2,4]triazin-2-yl)amino)-4-fluoropyrrolidin-1-yl)oxetane-3-carbonitrile]
3 nM	COc1nc(NC2CCC3(CC2)COC3)nn2ccc(-c3ccc4nc(C)n(CCO)c4c3)c12 [Compound 174, 2-(6-(2-((2-Oxaspiro[3.5]nonan-7-yl)amino)-4-methoxypyrrolo[2,1-f][1,2,4]triazin-5-yl)-2-methyl-1H-benzo[d]imidazol-1-yl)ethan-1-ol]
6.6 nM	COc1nc(N[C@H]2C[C@@](C)(O)C2)nn2ccc(-c3cc4cnccc4[nH]3)c12 [Compound 281, cis-3-((4-Methoxy-5-(1H-pyrrolo[3,2-c]pyridin-2-yl)pyrrolo[2,1-f][1,2,4]triazin-2-yl)amino)-1-methylcyclobutan-1-ol]
4.3 nM	COc1nc(N[C@@H]2CCNCC2(F)F)nn2ccc(-c3cnc4nccn4c3)c12 [Compound 964, (R)—N-(3,3-Difluoropiperidin-4-yl)-5-(imidazo[1,2-a]pyrimidin-6-yl)-4-methoxypyrrolo[2,1-f][1,2,4]triazin-2-amine]
13.6 nM	COc1nc(N[C@H]2CC[C@](C)(O)CC2)nn2ccc(-c3cc4cnccc4[nH]3)c12 [Compound 282, trans-4-((4-Methoxy-5-(1H-pyrrolo[3,2-c]pyridin-2-yl)pyrrolo[2,1-f][1,2,4]triazin-2-yl)amino)-1-methylcyclohexan-1-ol]
1.7 nM	COc1nc(N[C@H]2CC[C@](C)(O)CC2)nn2ccc(-c3ccc4nccnc4c3)c12 [Compound 347, trans-4-((4-Methoxy-5-(quinoxalin-6-yl)pyrrolo[2,1-f][1,2,4]triazin-2-yl)amino)-1-methylcyclohexan-1-ol]
3.7 nM	CC[C@]1(O)CC[C@H](Nc2nc(OC)c3c(-c4ccc5ncnn5c4)ccn3n2)CC1 [Compound 567, (1r,4r)-4-((5-([1,2,4]Triazolo[1,5-a]pyridin-6-yl)-4-methoxypyrrolo[2,1-f][1,2,4]triazin-2-yl)amino)-1-ethylcyclohexan-1-ol]
6.9 nM	COc1nc(N[C@@H]2CC[C@H]2OC)nn2ccc(-c3cnc4nccn4c3)c12 [Compound 930, 5-(Imidazo[1,2-a]pyrimidin-6-yl)-4-methoxy-N-((1R,2R)-2-methoxycyclobutyl)pyrrolo[2,1-f][1,2,4]triazin-2-amine]
2.7 nM	CNC(=O)c1cnn2ccc(-c3ccn4nc(N[C@H]5CC[C@](C)(O)CC5)nc(OC)c34)cc12 [Compound 401, 5-(2-(((1r,4r)-4-Hydroxy-4-methylcyclohexyl)amino)-4-methoxypyrrolo[2,1-f][1,2,4]triazin-5-yl)-N-methylpyrazolo[1,5-a]pyridine-3-carboxamide]

More lines, now with the values behind:

Structure (SMILES)	IC50
CCN1C[C@H](F)[C@H](Nc2nc(OC)c3c(-c4ccc5nnn(CC(F)F)c5c4)ccn3n2)C1 [Compound 732, 5-(1-(2,2-Difluoroethyl)-1H-benzo[d][1,2,3]triazol-6-yl)-N-((3R,4S)-1-ethyl-4-fluoropyrrolidin-3-yl)-4-methoxypyrrolo[2,1-f][1,2,4]triazin-2-amine]	1 nM
COc1nc(NC2CCN(C3COC3)CC2)nn2ccc(-c3ccc4nnn(CC(F)F)c4c3)c12 [Compound 750, 5-(1-(2,2-Difluoroethyl)-1H-benzo[d][1,2,3]triazol-6-yl)-4-methoxy-N-(1-(oxetan-3-yl)piperidin-4-yl)pyrrolo[2,1-f][1,2,4]triazin-2-amine]	0.3 nM
Cc1nc2ccc(-c3ccn4nc(N[C@H]5CC[C@](C)(O)CC5)nc(OC5COC5)c34)cc2n1CC(F)F [Compound 508, (1r,4r)-4-((5-(1-(2,2-Difluoroethyl)-2-methyl-1H-benzo[d]imidazol-6-yl)-4-(oxetan-3-yloxy)pyrrolo[2,1-f][1,2,4]triazin-2-yl)amino)-1-methylcyclohexan-1-ol]	24.3 nM
COc1nc(N[C@H]2C[C@](C)(NC(C)=O)C2)nn2ccc(-c3ccc4nnn(C)c4c3)c12 [Compound 206, N-(trans-3-((4-Methoxy-5-(1-methyl-1H-benzo[d][1,2,3]triazol-6-yl)pyrrolo[2,1-f][1,2,4]triazin-2-yl)amino)-1-methylcyclobutyl)acetamide]	0.4 nM
COc1nc(N[C@H]2CCN(C(C)=O)C[C@H]2F)nn2ccc(-c3ccc4nnn(C(C)C)c4c3)c12 [Compound 686, 1-((3R,4S)-3-Fluoro-4-((5-(1-isopropyl-1H-benzo[d][1,2,3]triazol-6-yl)-4-methoxypyrrolo[2,1-f][1,2,4]triazin-2-yl)amino)piperidin-1-yl)ethan-1-one]	3.4 nM
COc1nc(N[C@H]2C[C@](C)(N)C2)nn2ccc(-c3ccc4nnn(C)c4c3)c12 [Compound 203, trans-N^1-(4-methoxy-5-(1-methyl-1H-benzo[d][1,2,3]triazol-6-yl)pyrrolo[2,1-f][1,2,4]triazin-2-yl)-3-methylcyclobutane-1,3-diamine]	7.5 nM
COc1nc(N[C@@H]2CCN(C)CC2(F)F)nn2ccc(-c3ccc4nccnc4c3)c12 [Compound 375, (R)—N-(3,3-Difluoro-1-methylpiperidin-4-yl)-4-methoxy-5-(quinoxalin-6-yl)pyrrolo[2,1-f][1,2,4]triazin-2-amine]	3.3 nM
COc1nc(N[C@H]2CCN(C3COC3)CC2(F)F)nn2ccc(-c3ccc4nc(C)n(CC(F)F)c4c3)c12 [Compound 143, (S)—N-(3,3-Difluoro-1-(oxetan-3-yl)piperidin-4-yl)-5-(1-(2,2-difluoroethyl)-2-methyl-1H-benzo[d]imidazol-6-yl)-4-methoxypyrrolo[2,1-f][1,2,4]triazin-2-amine]	10.8 nM
COc1nc(N[C@@H]2CCN(C3COC3)CC2(F)F)nn2cc(F)c(-c3ccc4ncccc4c3)c12 [Compound 1062, (R)—N-(3,3-Difluoro-1-(oxetan-3-yl)piperidin-4-yl)-6-fluoro-4-methoxy-5-(quinolin-6-yl)pyrrolo[2,1-f][1,2,4]triazin-2-amine]	3.7 nM
COc1nc(N[C@@H]2CCN(C(C)=O)C[C@@H]2F)nn2ccc(-c3ccc4nnn(CC(F)F)c4c3)c12 [Compound 770, 1-((3S,4R)-4-((5-(1-(2,2-Difluoroethyl)-1H-benzo[d][1,2,3]triazol-6-yl)-4-methoxypyrrolo[2,1-f][1,2,4]triazin-2-yl)amino)-3-fluoropiperidin-1-yl)ethan-1-one]	1.5 nM
COc1nc(N[C@H]2CCN(C)C[C@H]2F)nn2ccc(-c3ccc4nc(C)n(CC(F)F)c4c3)c12 [Compound 127, 5-(1-(2,2-Difluoroethyl)-2-methyl-1H-benzo[d]imidazol-6-yl)-N-((3R,4S)-3-fluoro-1-methylpiperidin-4-yl)-4-methoxypyrrolo[2,1-f][1,2,4]triazin-2-amine]	2.2 nM
CN1CC[C@@H](Nc2nc(OC3COC3)c3c(-c4ccc5nccnc5c4)ccn3n2)C(F)(F)C1 [Compound 1136, (R)—N-(3,3-Difluoro-1-methylpiperidin-4-yl)-4-(oxetan-3-yloxy)-5-(quinoxalin-6-yl)pyrrolo[2,1-f][1,2,4]triazin-2-amine]	3.8 nM
COc1nc(N[C@H]2C[C@@](C)(NC(=O)C3(C#N)CC3)C2)nn2ccc(-c3ccn4nccc4c3)c12 [Compound 394, 1-Cyano-N-((1s,3s)-3-((4-methoxy-5-(pyrazolo[1,5-a]pyridin-5-yl)pyrrolo[2,1-f][1,2,4]triazin-2-yl)amino)-1-methylcyclobutyl)cyclopropane-1-carboxamide]	2.1 nM
COc1nc(N[C@@H]2CCN(CCF)C[C@@H]2F)nn2ccc(-c3ccc4nc(C)n(CC(F)F)c4c3)c12 [Compound 129, 5-(1-(2,2-Difluoroethyl)-2-methyl-1H-benzo[d]imidazol-6-yl)-N-((3S,4R)-3-fluoro-1-(2-fluoroethyl)piperidin-4-yl)-4-methoxypyrrolo[2,1-f][1,2,4]triazin-2-amine]	2.6 nM
